# In the SangsterLogP compilation:
# Assay: method code SF, from DOI: 10.1007/978-3-0348-5795-6_10, PMID: 954948
row,logP,SMILES
1,4.4,S=C=Nc1ccc(Cc2ccccc2)cc1
2,4.4,O=S(c1ccccc1)c1ccc(N=C=S)cc1 (centres undefined)
3,4.75,S=C=Nc1ccc(Oc2ccccc2)cc1
4,4.9,O=C(Oc1ccc(N=C=S)cc1)c1ccccc1
5,4.88,O=C(c1ccccc1)c1ccc(N=C=S)cc1
6,4.34,S=C=Nc1ccc2ccccc2c1
7,4.94,S=C=Nc1ccc(Nc2ccccc2)cc1
8,5.55,S=C=Nc1ccc(/N=N/c2ccccc2)cc1
9,4.66,S=C=Nc1ccc(-c2ccccc2)cc1

# More lines, now with the values behind:
row,SMILES,logP
1,CCN=C=S,1.47
2,CC(N=C=S)c1ccccc1 (centres undefined),3.46
3,S=C=NCCc1ccccc1,3.47
4,Oc1ccc(N=C=S)cc1,2.74
5,S=C=Nc1cccc2ccccc12,4.34
6,S=C=NC(c1ccccc1)(c1ccccc1)c1ccccc1,7.02
7,S=C=Nc1ccc2cc3ccccc3cc2c1,5.7
8,S=C=NCc1cccc2ccccc12,4.42
9,S=C=NCc1ccccc1,3.16
10,S=C=NC(c1ccccc1)c1ccccc1,5.09
